Data published in BindingDB's records for doi:10.1016/j.ejmech.2023.115171 (Shenyang Pharmaceutical University, 2023).
pIC50: −log10 of the molar value.

molecular target: Hypoxia-inducible factor 1-alpha; assay: Inhibition of HIF-1 alpha transcriptional activity in human U-251 cells incubated for 24 hrs under hypoxia condition by luciferse reporter assay

Compound	pIC50
COc1ccc(/C=C/C(=O)c2ccc3c(c2O)C=CC(C)(C)O3)cc1OCCN1CCC(C)CC1	5.40
COc1ccc(/C=C/C(=O)c2ccc3c(c2O)C=CC(C)(C)O3)cc1OCCN1CCOCC1	4.97
COc1ccc(/C=C/C(=O)c2ccc3c(c2O)C=CC(C)(C)O3)cc1OCCN1CCN(C)CC1	5.44
COc1ccc(/C=C/C(=O)c2ccc3c(c2O)C=CC(C)(C)O3)cc1OCCN1CCCC1	5.62
COc1ccc(/C=C/C(=O)c2ccc3c(c2O)C=CC(C)(C)O3)cc1OCCCN1CCCCC1	5.27
COc1ccc(/C=C/C(=O)c2ccc3c(c2O)C=CC(C)(C)O3)cc1OCCCN1CCC(C)CC1	5.21
COc1ccc(/C=C/C(=O)c2ccc3c(c2O)C=CC(C)(C)O3)cc1OCCCN1CCOCC1	5.48
COc1ccc(/C=C/C(=O)c2ccc3c(c2O)C=CC(C)(C)O3)cc1OCCCN1CCN(C)CC1	5.28
COc1ccc(/C=C/C(=O)c2ccc3c(c2O)C=CC(C)(C)O3)cc1OCCCN1CCCC1	5.62
CCN(CC)CCCOc1cc(/C=C/C(=O)c2ccc3c(c2O)C=CC(C)(C)O3)ccc1OC	5.25
COc1cc(/C=C/C(=O)c2ccc3c(c2O)C=CC(C)(C)O3)ccc1OCCN1CCCCC1	5.27
COc1cc(/C=C/C(=O)c2ccc3c(c2O)C=CC(C)(C)O3)ccc1OCCN1CCC(C)CC1	5.24
COc1cc(/C=C/C(=O)c2ccc3c(c2O)C=CC(C)(C)O3)ccc1OCCN1CCOCC1	5.09
COc1cc(/C=C/C(=O)c2ccc3c(c2O)C=CC(C)(C)O3)ccc1OCCN1CCN(C)CC1	5.44
COc1cc(/C=C/C(=O)c2ccc3c(c2O)C=CC(C)(C)O3)ccc1OCCN1CCCC1	5.19
CCN(CC)CCOc1ccc(/C=C/C(=O)c2ccc3c(c2O)C=CC(C)(C)O3)cc1OC	5.20
COc1cc(/C=C/C(=O)c2ccc3c(c2O)C=CC(C)(C)O3)ccc1OCCCN1CCCCC1	5.26
COc1cc(/C=C/C(=O)c2ccc3c(c2O)C=CC(C)(C)O3)ccc1OCCCN1CCC(C)CC1	5.42
COc1cc(/C=C/C(=O)c2ccc3c(c2O)C=CC(C)(C)O3)ccc1OCCCN1CCOCC1	4.98
COc1cc(/C=C/C(=O)c2ccc3c(c2O)C=CC(C)(C)O3)ccc1OCCCN1CCN(C)CC1	5.24
COc1cc(/C=C/C(=O)c2ccc3c(c2O)C=CC(C)(C)O3)ccc1OCCCN1CCCC1	5.53
CCN(CC)CCCOc1ccc(/C=C/C(=O)c2ccc3c(c2O)C=CC(C)(C)O3)cc1OC	5.20
COc1ccc(/C=C/C(=O)c2ccc3c(c2O)C=CC(C)(C)O3)cc1O	5.16
